Test results: patent publication US8324188B2, “Combinations of ET-18-O-CH3and anti-cancer agents for the treatment of cancer” (priority 2006, dated 2012)

Assays:
[1] = test system: LN-18; experiment: WST-1 proliferation assay, LN-18; assay type: cell-based; settings: Homo sapiens
Description: 2000 cells were plated in each well of 96-well flat bottom plates, and incubated overnight at 37 °C in 5% CO2. The growth of plated cells was measured by adding […] of WST-1 reagent (Roche Applied Sciences, Germany) to 3 control wells and measuring the absorbance at 650 nm and at 450 nm, respectively, with a SpectraMax250 plate reader. […] After this incubation, VVST-1 reagent was added to the wells and OD650-OD450 values were calculated as before. six wells were assayed for each conditions and standard deviation was determined: all experiments were performed at least three times independently. […] Six different concentrations of each drug were used in combinations index measurements and compared to +/− cells, and compared to controls without compound.

[2] = test system: LNCaP androgen-sensitive human prostate adenocarcinoma cells; experiment: Apo-ONE Homogenous Caspase-3/7 Assay in LNCaP cells; assay type: cell-based
Description: FIG. 1. Depicts the in vitro effects of 1-O-octadecyl-2-O-methyl-glycero-3-phosphocholine (final concentration 10 μM), (ionizing) radiation (absorbed dose of 5 Gray units; indicated as “RT”), and a combination thereof on programmed cell death (apoptosis) and the survival rate of LNCaP androgen-sensitive human prostate adenocarcinoma cells. Apoptosis was determined using the Apo-ONE™ Homogenous Caspase-317 Assay, Promega, Inc., Madison, Wis., USA according to the manufacturers instructions. The percentage of living cancer cells was estimated by means of trypan blue dye exclusion as described (Freshney, R. I. (1994) Culture of Animal Cells: A Manual of Basic Technique. 3rd Ed. Wiley-Liss. New York. USA). The cells were exposed to radiation six hours after (FIG. 1A), concomitantly with (FIG. 1B), or six hours before administration of 1-O-octadecyl-2-O-methyl-glycero-3-phospho-choline (FIG. 1C). The caspase assay was performed 12 hours after exposure to radiation. The respective data shown represent the average of two independent experiments.
First, the in vitro effects of 1-O-octadecyl-2-O-methyl-glycero-3-phosphocholine, (ionizing) radiation, and a combination thereof on programmed cell death (apoptosis) and the survival rate of LNCaP androgen-sensitive human prostate adenocarcinoma cells were measured. The LNCaP cell line was established from a metastatic lesion of the adenocarcinoma. The cells were treated with a final concentration of 10 μM 1-O-octadecyl-2-O-methyl-glycero-3-phosphocholine and (ionizing) radiation corresponding to an absorbed dose of 5 Gray units.
Apoptosis was determined using the Apo-ONE™ Homogenous Caspase-3/7 Assay, Promega, Inc., Madison, VV1, USA according to the manufacturers instructions. The percentage of living tumor cells was estimated by means of trypan blue dye exclusion as described (Freshney, R. I. (1994) Culture of Animal Cells: A Manual of Basic Technique. 3rd Ed. Wiley-Liss. New York. USA)
The cells were exposed to radiation six hours after (FIG. 1A), concomitantly with (FIG. 1B), or six hours before administration of 1-O-octadecyl-2-O-methyl-glycero-3-phospho-choline (FIG. 1C). The caspase assay was performed 12 hours after exposure to radiation. The respective data shown represent the average of two independent experiments.
In a further approach, 10 μM 1-O-octadecyl-2-O-methyl-glycero-3-phosphocholine (final concentration; “CHEM”) and (ionizing) radiation (5 Gray units; “RT”) were administered simultaneously to the LNCaP cells but the subsequent incubation period was extended to 24 hours. Apoptosis was measured using the Apo-ONE™ Homogenous Caspase-3/7 Assay as described above and expressed as relative fluorescence units (RFLU). The percentage of apoptotic cells was determined by flow cytometric analysis of annexin V-PE positive-stained and 7-AAD (7-Amino ActinomycinD) negative-stained cells (both purchased from BD Biosciences, San Jose, Calif., USA) according to established standard protocols. The data represent means±SEM from three independent experiments.
Apoptosis was measured using the Apo-ONE™ Homogenous Caspase-3/7 Assay as described above and expressed as relative fluorescence units (RFLU). The percentage of apoptotic cells was determined via annexin V-PE/7-AAD staining as described above. The caspase-317 assay and annexin staining were performed 22 hours after CHEM treatment.

[3] = test system: LNCaP cells grown orthotopically in the prostates of nude mice; experiment: LNCaP cells grown orthotopically in the prostates of nude mice (PSA, tumor volume); assay type: in vivo; settings: 0-30 mg/kg intraperitoneal injections and concomitant irradiation; dose-dependent effect
Description: FIG. 2. Depicts the in vivo effects of 1-O-octadecyl-2-O-methyl-glycero-3-phosphocholine (30 mg/kg body weight/day administered intraperitoneally for 15 days; FIG. 2A), (ionizing) radiation (absorbed dose of 5 Gray units administered on day 7); FIG. 2C), and a combination thereof (FIG. 2B) on LNCaP cells grown orthotopically in the prostates of nude mice (seven mice/group). Tumor growth was assessed via determining the serum level of the prostate-specific antigen (PSA) using a commercially available test kit as well as the tumor volume by means of magnetic resonance imaging. Graphed lines show tumor size in individual mice.
It is known that prostate cancer cell lines express FAS receptor, that some of them are not sensitive to FAS (O. W. Rokhlin et al., Cancer Res. 1997, 57: 1758-68). […]
1-O-octadecyl-2-O-methyl-glycero-3-phosphocholine was administered intraperitoneally in a dose of 30 mg/kg body weight/day administered intraperitoneally for 15 days (FIG. 2A; studies using different routes of administration such as orally or by gavage are currently under way). […] Tumor growth was assessed via determining the serum level of the prostate-specific antigen (PSA) using a commercially available test kit as well as the tumor volume by means of magnetic resonance imaging.

In the case of `CCCCCCCCCCCCCCCCCCOCC(COP(=O)([O-])OCC[N+](C)(C)C)OC` (racemic) [AP-121, 1-O-octadecyl-2-O-methyl-glycero-3-phosphocholine], the IC50 [1] is reported as 1300 nM, the “increase in apoptotic response (caspase-3/7 assay)” value ([2]; 10 μM administered six hours prior to radiation (5 Gray), combined treatment (FIG. 1A)) is reported as > 2.5 fold and the “extent of apoptosis, increase in cells only exposed to the chemical as compared to the combined treatment” value ([2]; 10 μM, radiation six hours before (FIG. 1C)) is reported as “about 25%”. The “Caspase-3/7 activity (RFLU)” value ([2]; AD (androgen deprivation, two days) + 5 μM CHEM, AD alone 81) was 126 RFLU, the “Caspase-3/7 activity (RFLU)” value ([2]; AD + 10 μM CHEM) was 115 RFLU and the “Caspase-3/7 activity (RFLU)” value ([2]; AD + R1881 (two days prior) + 5 μM CHEM) was 453 RFLU. The “Caspase-3/7 activity (RFLU)” value ([2]; AD + R1881 (two days prior) + 10 μM CHEM) was 962 RFLU, the “Caspase-3/7 activity (RFLU)” value ([2]; CHEM 10 μM + RT 5 Gray simultaneously, 24 hours, means±SEM, p < 0.0001 vs CHEM and RT) was 1514 ± 102 RFLU and the “Caspase-3/7 activity (RFLU)” value ([2]; CHEM 10 μM alone, 24 hours, means±SEM, three experiments, Control 193 ± 39) was 580 ± 207 RFLU. The “Caspase-3/7 activity (RFLU)” value ([2]; Contr. + 5 μM CHEM, 22 hours after CHEM, Contr. 235) was 380 RFLU, the “Caspase-3/7 activity (RFLU)” value ([2]; Contr. + 10 μM CHEM, 22 hours after CHEM) was 436 RFLU and the “PSA (prostate specific antigen) levels” value [3] was “reduced after few days of treatment”. The tumor size [3] was “shrinkage of the tumor size after one week of treatment”.
